This is an account of results in patent publication US10307411B2, “Use of cotinine in treating or preventing neurogenesis deficits and enhancing neurogenesis” (Department of Veterans Affairs, priority 2014, dated 2019).

Series [1] is described as follows: Novel location recognition test (NOL), spatial recognition memory in rats subjected to CMF chemotherapy. In kind it is in vivo, Wistar female rats. Particulars: CMF-treated rats, cotinine 5 mg/kg oral. As to the method: Wistar female rats (2-4 months of age, 200-300 g) (n=10/group) were obtained from Harlan laboratories. Rats were housed in pairs, kept at 12 h light/12 h dark cycle and maintained in an air-conditioned room at a temperature of 21±1° C. and relative humidity of 60±10%. Food and water were available ad libitum. All rats were acclimated to the Veterinary Medical Unit for 1 week and handled daily. Weight was recorded every 2 days to assess for dehydration induced by the chemotherapy regime. All procedures were approved by the Institutional Animal Care and Use (IACUC) committee of the Bay Pines Veterans Affairs (VA) Healthcare System, in accordance with VA and The Guide for the Care and Use of Laboratory Animals. […]
This task evaluates spatial recognition memory and is based on the preferential exploration of a displaced object by rodents able to detect a novel placement of an object after remembering each object's original positions (Ennaceur A, Delacour J (1988) A new one-trial test for neurobiological studies of memory in rats. 1: Behavioral data. Behav Brain Res 31(1):47-59). […] The discrimination index (DI), which is a measure of spatial recognition memory, was calculated as follows: time spent exploring the object in the new location/total time spent exploring both objects.
Differences among the means were analyzed using one-way analysis of variance (ANOVA). […]

For series [2], the system named is Salmonella. Particulars: 0-1000 μg/plate; cited from earlier work.
A short description of series [3]: Weight gain in rats subjected to CMF chemotherapy. In kind it is in vivo, Wistar female rats. As to the method: Wistar female rats (2-4 months of age, 200-300 g) (n=10/group) were obtained from Harlan laboratories. Rats were housed in pairs, kept at 12 h light/12 h dark cycle and maintained in an air-conditioned room at a temperature of 21±1° C. and relative humidity of 60±10%. Food and water were available ad libitum. All rats were acclimated to the Veterinary Medical Unit for 1 week and handled daily. Weight was recorded every 2 days to assess for dehydration induced by the chemotherapy regime. All procedures were approved by the Institutional Animal Care and Use (IACUC) committee of the Bay Pines Veterans Affairs (VA) Healthcare System, in accordance with VA and The Guide for the Care and Use of Laboratory Animals. Following the habituation period, rats were divided into 4 groups (n=6-12/condition) and treated with warm saline (vehicle) or a combination of cyclophosphamide (40 mg/kg), methotrexate (37.5 mg/kg) and 5-fluorouracil (75 mg/kg) (CMF) via intraperitoneal (i.p. or IP) injection once a week for 2 weeks, the shortest time inducing cognitive impairment in the rats. […] Differences among the means were analyzed using one-way analysis of variance (ANOVA). […]

Molecules are shown by their SMILES.

For the compound `CN1C(=O)CC[C@H]1c1cccnc1` [cotinine, (5S)-1-methyl-5-(3-pyridyl) pyrrolidin-2-one], in series [1], the “ability to discriminate between old and new location of objects (discrimination index)” value is reported as “restored the ability”. Moreover, the “location discrimination level compared with control rats” value in series [1] (p>0.05) is given as “indistinguishable from control rats”. Further, the “genotoxic effects, Salmonella mutagenicity” value in series [2] is “no genotoxic effects”. For the same compound, the “recovery of weight gain after chemotherapy” value in series [3] (CMF-treated rats, cotinine 5 mg/kg oral daily from 3 days after chemotherapy, vs chemotherapy-treated control rats p<0.05) is reported as “enhanced the recovery of weight gain”. Besides, the “weight levels reached compared with vehicle-treated rats” value in series [3] (cotinine 5 mg/kg oral daily, 30 days of experiments) is recorded as “indistinguishable from the vehicle-treated rats”.
